Results reported in patent publication US20070077308A1, “CONTINUOUS MULTI-MICROENCAPSULATION PROCESS FOR IMPROVING THE STABILITY AND STORAGE LIFE OF BIOLOGICALLY ACTIVE INGREDIENTS” (priority 2003, published 2007).

Assay: Storage stability of microencapsulated fish oil fatty acids
Format: physicochemical
Description: We have performed tests of storage ability while remaining the active ingredients unchanged.

% in the oil (d = 0) [% in the oil] | % in the oil (d = 30, 4° C.) [% in the oil] | % in the oil (d = 30, 25° C.) [% in the oil] | % in the oil (d = 30, 45° C.) [% in the oil] | % in the oil (d = 60, 45° C.) [% in the oil] | Compound
2.9 | 2.7 | 2.6 | 2.6 | 2.4 | CCCCCCCC/C=C\CCCCCCCC(=O)O [oleic acid]
2.8 | 2.6 | 2.6 | 2.5 | 2.5 | CCCCC/C=C\C/C=C\CCCCCCCC(=O)O [linoleic acid]

Further lines, the compound ahead of its results:

Compound | % in the oil (d = 0) [% in the oil] | % in the oil (d = 30, 4° C.) [% in the oil] | % in the oil (d = 30, 25° C.) [% in the oil] | % in the oil (d = 30, 45° C.) [% in the oil] | % in the oil (d = 60, 45° C.) [% in the oil]
CCCCCCCCCCCCCCCC(=O)O [Palmitic acid] | 1.1 | 1.1 | 1.1 | 1.1 | 1.1
CC/C=C\C/C=C\C/C=C\CCCCCCCC(=O)O [alpha-linolenic acid] | 2.7 | 2.5 | 2.6 | 2.5 | 2.4
CCCCCCCCCCCCCCCCCC(=O)O [Stearic acid] | 1.4 | 1.4 | 1.4 | 1.3 | 1.3
